# Measured values published in US20210267886A1, “Gel-In-Oil Emulsion and Transdermally Absorbed Agent” (Nippon Shokubai Co., Ltd., priority 2018, published 2021).
# System: L929 cell-embedded collagen gel (cultured dermis model)
# Experiment: Titer evaluation using cultured dermis model (quantification of DNA)
# Assay type: cell-based
# Experimental: Ultrapure water was added to a collagen made of pig skin (manufactured by NH Foods Ltd.), and the obtained mixture was stirred overnight at 4° C. to prepare a 1% collagen solution. A L929 cell suspension (obtained by collecting cultured L929 cells and suspending the collected L929 cells in a culture medium) (6×10^5 cells) was centrifuged at 1000 rpm for 3 minutes, and the supernatant was removed by suction. A 20% fetal bovine serum (Fetal Bovine Serum, manufactured by FBS bio sera) was added to a Dulbecco's Modified Eagle Medium (DMEM) (manufactured by Thermo Fisher Scientific Inc.) prepared at a concentration of twice to prepare a 2-fold concentrated DMEM culture medium. L929 cells were suspended in a solution in which the 1% collagen solution and the 2-fold concentrated DMEM culture medium were mixed at a ratio of 1:1. This suspension was added to a 12-well plate at 1 ml/well, and was left to stand in an incubator for 1 hour to allow the suspension to turn into a gel.
# A ring made of polycarbonate (outer diameter: 1.4 cm, inner diameter: 1.2 cm, and height: 0.3 cm) was placed on a L929 cell-embedded collagen gel (cultured dermis model) prepared in Synthesis Example 1. 200 μl of the bFGF-containing G/O emulsion described above was added to the inside the ring. 200 μl of DMEM culture medium was added to the outside of the ring, and the gel was placed in an incubator. The culture medium was changed every day, and the amounts of DNA in the L929 cell-embedded collagen gel after 1 day, 3 days, and 5 days were quantified. The quantification of DNA was performed as follows.
# A liquid in which 1 ml of 0.25% collagenase solution (manufactured by Wako Pure Chemical Industries, Ltd.) was added to a L929 cell-embedded collagen gel was referred to as liquid E. A liquid in which a gel was dissolved by shaking the gel at 37° C. for around 1 hour was referred to as liquid F. Each sample was centrifuged at 1000 rpm for 3 minutes, and the supernatant was removed by suction. Triton X-100 (manufactured by Sigma) was added to the above-described PBS to prepare 0.1% Triton X-100-containing PBS, and the sample was suspended in 1 ml of the 0.1% Triton X-100-containing PBS. The obtained suspension was frozen at −80° C., and then thawed at room temperature. This operation was repeated 3 times. 180 μl of Hoechst (Hoechst (registered trademark), manufactured by Thermo Fisher Scientific K.K.) was mixed with 20 μl of sample, and the obtained mixture was added in a 96-well black plate. By using Fluorescent DNA Quantitation Kit Cat. #170-2480 (BIO-RAD), the quantification of DNA was performed with fluorescent brightness measurement under the conditions of an excitation filter of 355 nm and an absorption filter of 460 nm. The fluorescent brightness was measured 3 times, and the average was taken to obtain the amount of DNA. The quantification of DNA was performed before the start of the test (0 day), and 1 day, 3 days, 5 days, and 7 days after the start of the test.
substance,measurement,setting,value
Comparative Example 3: bFGF (basic fibroblast growth factor) used as it was,Amount of DNA,0 Day (before the start of the test),43 ng
same,Amount of DNA,"After 1 day, 200 μl sample",74 ng
same,Amount of DNA,"After 3 days, 200 μl sample",145 ng
same,Amount of DNA,"After 5 days, 200 μl sample",187 ng
same,Amount of DNA,"After 7 days, 200 μl sample",192 ng
